This note sets out measurements from patent publication US20090325877A1, “Combination Product of Receptor Tyrosine Kinase Inhibitor and Fatty Acid Synthase Inhibitor for Treating Cancer” (Wyeth, priority 2008, published 2009).

Molecules are shown by their SMILES. Converted amounts (≈) assume the structure as drawn. Where two headings read alike, the source gives them in different places.

Test [1] deals with A2780 ovarian cancer cells. Put plainly: Formazan dye (MTT) in-vitro cell growth assay, A2780. The test is classed as cell-based. The note with it: for IC50: Homo sapiens, 72 h. Here is the method:
Effect of FAS and ErbB inhibition on A2780 ovarian cancer cells (OCC). […] Cells were grown for three days in the presence of vehicle (0.1% DMSO) or synthetic inhibitor before cell number was estimated. Data in the charts represent means +/−SD of triplicate measurements.
Cells were plated at 0.5−5×10^3/well in 96-well plates. After adhesion, media ±drugs alone or in combination were added. Cell numbers were estimated after 3-5 days by using a colorimetric formazan dye assay (Biomedica, Vienna, Austria). Results (mean±SD, n=3) were expressed in percent of untreated (solvent) control. Statistical analysis of data from drug combination treatment experiments was performed using one-factorial ANOVA followed by Scheffe-test.
Yellow MTT (3-(4,5-Dimethylthiazol-2-yl)-2,5-diphenyltetrazolium bromide, a tetrazole) is reduced to purple formazan in the mitochondria of living cells (see Mosmann, T., J. Immunol. Methods, 65(1-2): 55-63, 1983).

In a further test the test system is FASN protein. Put plainly: FASN protein level by Western blotting in A2780 cells. The format is cell-based.
The test system of another test is EGFR mRNA. Nature of the test: EGFR mRNA by RT-PCR and qRT-PCR in A2780 cells. The format is cell-based, human. Here is the method: RNA was extracted from the cells using TRI-REAGENT™ (Molecular Research Center, Cincinnati, Ohio) and subjected to reverse transcription—polymerase chain reaction (“RT-PCR”) using the TITAN ONE TUBE RT-PCR KIT™ system (Hoffmann-La Roche). […] Conditions for ErbB2 and GAPDH were: 50° C., 30 minutes; 94° C., 2 minutes; 10 cycles (94° C., 30 seconds; 51° C., 30 seconds; 68° C., 45 seconds); 25 cycles (94° C., 30 seconds; 51° C., 30 seconds; 68° C., 45 seconds +5 seconds autoextension) and 68° C., 7 minutes. […] Fragments were electrophoresed and stained with ethidium bromide.
Quantitative RT-PCR (“qRT-PCR”) was performed in the ABI PRISM 7000™ Sequence Detector (Applied Biosystems, Foster City, Calif.) using human EGFR, ErbB2, and FASN TaqMan® Gene Expression Assay systems (Applied Biosystems; Assay IDs: Hs00193306_m1, Hs00170433_m1, Hs00188012_m1) according to the manufacturer's instructions. β-actin and GAPDH (VIC™ and FAM labeled pre-developed TaqMan® Assay reagents, Applied Biosystems) were used as endogenous controls. EGFR, ErbB2, and FASN mRNA expression were calculated as described previously (Grunt, ibid).
On the technique in general: In qPCR the cycle at which signal appears reflects the starting amount.

A further test relates to AKT. Nature of the test: AKT phosphorylation and expression by Western blotting in A2780 and SKOV3 cells. The test is classed as cell-based. The procedure:
Cells plated in culture media containing 5% fetal calf serum at a density of 2.6×10^5 (SKOV3) or 6×10^5 (A2780) in 60 mm dishes (Corning, Corning, N.Y.) were treated with FASN inhibitor C75, with small-molecule ErbB RTK inhibitors (RTKIs), with the MEK1/2 antagonist U0126 or with the PI3K inhibitor LY294002 for the indicated times and at various concentrations. In some experiments cells were stimulated for 5 or 10 min with 100 ng/ml EGF (Sigma) before lysis in RIPA buffer (Grunt et al., Biochem Biophys Res Commun 329:1253-1259, 2005). Proteins (20 μg/lane) were subjected to SDS-PAGE, blotted onto PVDF membranes and immunostained (see Grunt, ibid) using the following antibodies: 2 μg/ml goat anti-pEGFR(Tyr1173) (sc-12351), 1 μg/ml rabbit anti-ErbB2 (C-18) (sc-284), 1 μg/ml rabbit anti-pErbB2(Tyr1248) (sc-12352-R) (all from Santa Cruz Biotechnology Inc., Santa Cruz, Calif.), rabbit anti-EGFR 1:1,000 (2232), rabbit anti-AKT 1:1,000 (9272), rabbit anti-pAKT(Ser473) 1:1,000 (9271), rabbit anti-pAKT(Thr308) 1:1,000 (9275), rabbit anti-pERK1/2(Thr202/Tyr204) 1:1,000 (9101) (all from Cell Signaling Technology), rabbit anti-ERK1/2 1:3,000 (06-182, Upstate Biotechnology Inc., Lake Placid, N.Y.), 0.5 μg/ml mouse monoclonal anti-FASN (610963, BD Biosciences, San Jose, Calif.), or 0.67 μg/ml goat anti-human actin (1-19, sc-1616, Santa Cruz Biotechnology). […]
(Immunoblotting shows a protein as a band on a membrane.)

Regarding `C=C1C(=O)OC(CCCCCCCC)C1C(=O)O` (centres unmarked) [C75, tetrahydro-3-methylene-2-oxo-5-n-octyl-4-furancarboxylic acid], the “in vitro growth inhibition (in words)” value in test [1] (A2780, MTT assay, single drug) is reported as “growth inhibitory activity”. Also, the IC50 in test [1] (A2780 OCC, each individual inhibitor, 50% reduction of cell growth, three days, n = 3-5, read-out: IC50 (μM) Mean +/− SD) is 21.9 µM; in test [1] (A2780 ovarian cancer cells, grown three days with inhibitor, read-out: IC50, growth of OCC (MTT assay)), 22 µM; in the test with FASN protein (Homo sapiens, read-out: IC50, down-regulation of FASN protein), 4.15 µg/mL (≈ 16.3 µM); in the test on EGFR mRNA (Homo sapiens, 72 h, after 3 days, read-out: IC50, down-regulation of EGFR mRNA), 6.5 µg/mL (≈ 25.6 µM). Further, the “IT50, FASN protein” value in the test on FASN protein is 40 h. The “FASN protein expression, effect in words” value in the test on FASN protein (b102: within three days, pelitinib at doses as low as 3 μM) is “shut-down”. Also, in the test on EGFR mRNA, the “EGFR mRNA, effect in words” value is “slowly and concordantly reduces”. Further, the “IT50, EGFR mRNA” value with EGFR mRNA (at 7 μg/ml) is on record as “about 29 hours”. Also, the “phosphorylation of AKT (Ser473, Thr308), effect in words” value in the test with AKT is listed as “dose-dependently inhibits”. The “total AKT protein level, effect in words” value in the test on AKT (C75 at high concentrations) is reported as “slightly affects”.
